A melting point compilation (Tetko et al.)

Structure (SMILES) | melting point
CCN(CC)c1ccc(S(N)(=O)=O)cc1N | 102 to 104 °C
SC1=Nc2ccccc2CS1 | 149 to 151 °C
O=C(O)C1CCN(S(=O)(=O)c2cccnc2)CC1 | 237 to 239 °C
COc1ccc(Cl)cc1N1CC(C(=O)O)CC1=O (stereo not given) | 150 to 155 °C
O=C(O)c1ccc(Cl)c(N2CCNC2=O)c1 | 290 to 292 °C
CNC(C)c1ccc(S(N)(=O)=O)cc1 (stereo not given) | 145 to 147 °C
CC(C)(C)c1nccc(N)n1 | 64 to 66 °C
Nc1cccc(-c2ccc3c(c2)CCO3)c1 | 64 to 66 °C
CNCc1nnn[nH]1 | 224 to 226 °C
O=S(=O)(Cl)c1ccc(-n2cccn2)c(F)c1 | 104 to 106 °C
Cc1cc(C(=O)O)c2c(C)noc2n1 | 233 to 235 °C
CCN(CC)S(=O)(=O)c1ccc(Cl)c(S(=O)(=O)Cl)c1 | 99 to 101 °C
O=C(O)CN(CC(=O)O)Cc1ccccc1 | 200 to 202 °C
Cc1sc(C(=O)O)cc1-c1ccc(F)cc1 | 156 to 158 °C
CCOC(=O)c1c(C)[nH]c(C(C)=O)c1C | 115 to 117 °C
CC(=O)N1CCN(CCC(=O)O)CC1 | 114 to 116 °C
O=C(O)Cc1csc(NC(=O)NC2CC2)n1 | 188 to 190 °C
CCc1ccccc1NC(=O)CN1CCNCC1 | 88 to 90 °C
CN1CC(=O)N(c2ccc([N+](=O)[O-])cc2)C1=O | 161 to 163 °C
Cc1cc(C(C)(C)C)cc(C)c1S(=O)(=O)Cl | 113 to 115 °C
CCCCc1ccc(NS(=O)(=O)c2cccc(C(=O)O)c2)cc1 | 206 to 208 °C
Cc1ccc(S(=O)(=O)N2CCC(C(=O)O)CC2)cc1C | 190 to 192 °C
O=c1c2ccccc2nc(S)n1CCCN1CCOCC1 | 175 to 177 °C
O=C1CCN(C(=O)C2CC2)CC1 | 72 to 74 °C
COC(=O)c1cc2c(nc1N)CCCC2 | 126 to 128 °C
O=C(O)c1nccn2ccnc12 | 167 to 169 °C
O=Cc1c(F)cccc1N1CCCC1 | 41 to 43 °C
O=C(O)CSc1cnc2ccccc2n1 | 178 to 180 °C
O=C(O)c1nnn(-c2cccc(F)c2)c1C(F)(F)F | 130 to 132 °C

Second part, the compound after the results:

melting point | Structure (SMILES)
230 to 232 °C | Cc1nc(-c2cnn(C)c2)sc1C(=O)O
209 to 211 °C | O=C(O)c1ccc(NS(=O)(=O)c2ccccc2)cc1
59 to 61 °C | CNS(=O)(=O)c1ccc(Br)s1
69 to 71 °C | CC1(c2ccc(Br)cc2)CC(=O)OC1=O (stereo not given)
303 to 305 °C | O=C(O)c1ccc(CNC2=NS(=O)(=O)c3ccccc32)cc1
135 to 137 °C | Cc1ccc(C)c(OCc2nnc(S)o2)c1
323 to 325 °C | O=C(O)c1cc(-c2cccnc2)nc2ccccc12
187 to 189 °C | NC(=NO)c1ccc([N+](=O)[O-])cc1
200 to 202 °C | O=C(O)CN1C(=O)COc2ccc([N+](=O)[O-])cc21
189 to 191 °C | Nc1cccc(-c2cn[nH]c2)c1
231 to 233 °C | CCS(=O)(=O)N1CCc2cc(C(=O)CCl)ccc21
183 to 185 °C | Cc1[nH]c(SCC(=O)O)nc1Cc1ccccc1
177 to 178 °C | Cc1cc(Br)c(NC(=O)CCl)c(Br)c1
278 to 280 °C | Cc1nn(-c2ccccc2)c2ncc(C(=O)O)cc12
92 to 94 °C | O=C(O)CCc1ccc2c(c1)CCO2
< 17 °C | CC(Cl)C(=O)NCCc1cccs1 (stereo not given)
158 to 160 °C | CC(C)c1c(C(=O)O)nnn1-c1ccc(F)cc1F
123 to 125 °C | O=C(O)COc1ccc(Cl)cc1Br
100 to 102 °C | CCOC(=O)CCc1nnc(-c2ccc(Cl)cc2)o1
89 to 91 °C | O=C(c1ccc(F)cc1)c1cnc2ccccc2c1
143 to 145 °C | NC(=O)c1ccccc1N1CCC(N)CC1
177 to 179 °C | O=C(O)c1ccc(OCCO)cc1
146 to 148 °C | N#CC1=C(N)CCC1
93 to 95 °C | NC(=O)C(N)Cc1ccccc1 (stereo not given)
171 to 173 °C | Cc1sc(=O)[nH]c1-c1ccccc1
123 to 126 °C | CC(C)(C)OC(=O)NNC(=O)OC(C)(C)C
